Test results: patent publication US20220281779A1, “Fertiliser and/or Soil Improver Composition, Method of Preparation and Method of Use” (Veratin Pty Ltd, priority 2016, published 2022)

System: Sceptre wheat
Assay: Field wheat trial
Assay type: in vivo
Conditions: total N applied: nV-2 17 units, Flexi-N and Urea 59 units
Description: A fertiliser and/or soil improver composition (nV-2) is prepared using a method exemplified in Example III, with a sheep wool material (uncleaned and/or containing the fat layer) being deconstructed using a eutectic melt comprising urea:choline chloride at a ratio in the range of from about 7.5:1 to about 4:1, and with the temperature for the deconstruction of wool being in a range of approximately 145-165° C. (or more specifically approximately 145-160° C.). The composition (nV-2) was also prepared at a weight to volume ratio of the wool to eutectic melt in the range of from about 1 g:1 ml to about 1 g:25 ml.
The resultant fertiliser and/or soil improver composition (nV-2) comprises 35% (w/v) of total N (nitrogen) and has pH in the range of pH 5.5-6.5. For the field application, the composition nV-2 was mixed with water (as a carrier) in a ratio of approximately 52 L water to approximately 48 L of nV-2.
The field wheat trial was established as a randomised complete block of 5 treatments and 4 replicates in a single bank with each plot 12 meter long by 2 meter wide.
The effectiveness of the fertiliser and/or soil improver composition nV-2 according to the present invention on plant growth (wheat in this instance) and/or as an organic nitrogen nutrient source, is compared with a commercial inorganic fertiliser (Flexi-N, which is a commercially available fertiliser distributed by the Australian Company CSBP and contains three forms of N—urea, ammonium and nitrate, with a total N concentration of 42%), and with Urea alone (at 46% total N). […]
At 41 and 75 days after sowing, the NDVI was recorded for each plot using a hand-held green-seeker.
At 209 days after sowing, the trial was plot harvested for yield comparisons with grain samples collected from each plot and analysed for quality (protein, moisture, specific weight and screenings) according to industry standards.
All data collected was statistically analysed with the proprietary agricultural field research program ARM® using an Analysis of Variance at a confidence limit of 95%.

SMILES: NC(N)=O [Urea]
- Average crop yield (harvest 209 days after sowing): 7.848
- Average crop yield/Unit of N: 0.133
- Net crop yield/unit of N: 0.009
